According to patent US9023398B2, “Method for improving the aqueous solubility of poorly-soluble substances” (Kabushiki Kaisha Sangi, priority 2009, dated 2015):
Structures can show the parent of a compound that is named as a salt.

How the values were obtained:
[1] = Protocol: The rotation number of the stirrer was 120 rpm, and all of the tests were conducted in a thermostat at 37±0.5° C. Two types of test solutions, namely, distilled water and 2nd fluid for disintegration test (pH 6.8) of the Japanese Pharmacopoeia were used. As such 2nd fluid for disintegration test of the Japanese Pharmacopoeia, a solution prepared by diluting the 10-fold concentration solution of Kanto Kagaku Co., Ltd. with distilled water was used.
A comparative test was carried out in the same manner as that described above with the exception that a poorly-soluble substance or the like was used in an amount equal to that of a substance with improved aqueous solubility, instead of the substance with improved aqueous solubility.
1 mL of the solution was sampled in an Eppendorf centrifuge tube, 1, 3, 10, 30, 60, 180 and 360 minutes after initiation of the test. The thus sampled solution was centrifuged at 12,000 rpm for 5 minutes. […] In the case of the comparative test, the poorly-soluble substance or the like, which had not been dissolved in the solution, was removed. An aliquot of this supernatant was immediately frozen. The frozen sample was freeze-dried, and it was then used as a sample in the measurement of the amount of the substance with improved aqueous solubility, which had been dissolved in the test solution. The dissolved poorly-soluble substance was measured mainly using a dual wavelength absorption photometer.
Moreover, a comparative test was carried out using silica fume instead of the calcium compound microparticles. Specifically, a coating treatment was carried out according to the same method as that described in the above section “6-1.

[2] = Dissolution test of poorly-soluble substances using distilled water; assay type: physicochemical
[3] = Dissolution test of poorly-soluble substances using 2nd fluid for disintegration test (pH 6.8) of the Japanese Pharmacopoeia; assay type: physicochemical
Experimental: From initiation of the test, the mixed solution was stirred with a stirrer having a length of 15 mm. The rotation number of the stirrer was 120 rpm, and all of the tests were conducted in a thermostat at 37±0.5° C. Two types of test solutions, namely, distilled water and 2nd fluid for disintegration test (pH 6.8) of the Japanese Pharmacopoeia were used. As such 2nd fluid for disintegration test of the Japanese Pharmacopoeia, a solution prepared by diluting the 10-fold concentration solution of Kanto Kagaku Co., Ltd. with distilled water was used.

Row | SMILES | solubility-improving effect [1] | other results
1 | N[C@@H](CSCC(=O)O)C(=O)O [L-carbocysteine] | a solubility-improving effect was obtained | 
2 | CN1CCC[C@@H]1CCO[C@](C)(c1ccccc1)c1ccc(Cl)cc1 [clemastine fumarate] | a solubility-improving effect was obtained | 
3 | O=C(O)c1cc(/N=N/c2ccc(S(=O)(=O)Nc3ccccn3)cc2)ccc1O [salazosulfapyridine] | a solubility-improving effect was obtained | 
4 | CN(C)/N=N/c1[nH]cnc1C(N)=O [dacarbazine] | a solubility-improving effect was obtained | 
5 | Clc1ccc2c(c1)C(N1CCNCC1)=Nc1ccccc1O2 [amoxapine] | a solubility-improving effect was obtained | 
6 | CO/N=C(\C(=O)N[C@@H]1C(=O)N2C(C(=O)O)=C(CSc3nnnn3C)CS[C@H]12)c1csc(N)n1 [cefmenoxime hydrochloride] | a solubility-improving effect was obtained | 
7 | CC1CNc2c(cccc2S(=O)(=O)N[C@@H](CCCNC(=N)N)C(=O)N2CC[C@@H](C)C[C@@H]2C(=O)O)C1 (stereo partly drawn) [argatroban] | a solubility-improving effect was obtained | 
8 | O=C(Nc1ccc(Cl)cc1)Nc1ccc(Cl)c(Cl)c1 [10-1, Trichlorocarbanilide] | a solubility-improving effect was obtained | Dissolved amount ([2]; Dissolution test using water, elution time 1 min): 0.0 µg/mL; Dissolved amount ([2]; Dissolution test using water, elution time 3 min): 0.1 µg/mL; Dissolved amount ([2]; Dissolution test using water, elution time 10 min): 0.4 µg/mL; Dissolved amount ([2]; Dissolution test using water, elution time 30 min): 0.4 µg/mL; Dissolved amount ([2]; Dissolution test using water, elution time 60 min): 0.4 µg/mL; Dissolved amount ([2]; Dissolution test using water, elution time 180 min): 0.5 µg/mL; Dissolved amount ([2]; Dissolution test using water, elution time 360 min): 0.6 µg/mL; Dissolved amount ([2]; Distilled water, trichlorocarbanilide, elution time not printed in Table 13): 0.6 µg/mL; Dissolved amount ([3]; 2nd fluid for disintegration test, elution time 1 min): 0.0 µg/mL; Dissolved amount ([3]; 2nd fluid for disintegration test, elution time 3 min): 0.3 µg/mL; Dissolved amount ([3]; 2nd fluid for disintegration test, elution time 10 min): 0.6 µg/mL; Dissolved amount ([3]; 2nd fluid for disintegration test, elution time 30 min): 0.8 µg/mL; Dissolved amount ([3]; 2nd fluid for disintegration test, elution time 60 min): 1.1 µg/mL; Dissolved amount ([3]; 2nd fluid for disintegration test, elution time 180 min): 1.3 µg/mL; Dissolved amount ([3]; 2nd fluid for disintegration test, elution time 360 min): 1.5 µg/mL; Dissolved amount ([3]; Second disintegration test medium, trichlorocarbanilide, elution time not printed in Table 13): 1.5 µg/mL
9 | CCCCC(=O)O[C@H]1CC[C@H]2[C@@H]3CCc4cc(O)ccc4[C@H]3CC[C@]12C [estradiol valerate] | a solubility-improving effect was obtained | 
10 | CCCCCC(=O)O[C@]1(C(C)=O)CC[C@H]2[C@@H]3CCC4=CC(=O)CC[C@]4(C)[C@H]3CC[C@@]21C [hydroxyprogesterone caproate] | a solubility-improving effect was obtained | 
11 | C[C@]12CC[C@@H]3c4ccc(OC(=O)c5ccccc5)cc4CC[C@H]3[C@@H]1CC[C@@H]2O [estradiol benzoate] | a solubility-improving effect was obtained | 
12 | C[C@H]1[C@H](NC(=O)/C(=N\OC(C)(C)C(=O)O)c2csc(N)n2)C(=O)N1S(=O)(=O)O [aztreonam] | a solubility-improving effect was obtained | 
13 | C=CC[C@@H]1/C=C(\C)C[C@H](C)C[C@H](OC)[C@H]2O[C@@](O)(C(=O)C(=O)N3CCCC[C@H]3C(=O)O[C@H](/C(C)=C/[C@@H]3CC[C@@H](O)[C@H](OC)C3)[C@H](C)[C@@H](O)CC1=O)[C@H](C)C[C@@H]2OC [tacrolimus hydrate] | a solubility-improving effect was obtained | 
14 | CC/C=C\C/C=C\C/C=C\C/C=C\C/C=C\CCCC(=O)OCC [ethyl icosapentate] | a solubility-improving effect was obtained | 
15 | CC(=O)O[C@H]1C(=O)[C@@]2(C)[C@H]([C@H](OC(=O)c3ccccc3)[C@]3(O)C[C@H](OC(=O)[C@H](O)[C@@H](NC(=O)c4ccccc4)c4ccccc4)C(C)=C1C3(C)C)[C@]1(OC(C)=O)CO[C@@H]1C[C@@H]2O [paclitaxel] | a solubility-improving effect was obtained | 
16 | C[C@@H]1[C@H](O)[C@@H](C)/C=C/C=C/CC/C=C/C=C/C=C/C=C/C(O[C@H]2O[C@H](C)[C@@H](O)[C@H](N)[C@@H]2O)CC2O[C@](O)(CC(O)C(O)CCC(O)CC(O)CC(O)CC(=O)O[C@H]1C)CC(O)C2C(=O)O (stereo partly drawn) [nystatin] | a solubility-improving effect was obtained | 
17 | CC(C)(O/N=C(\C(=O)N[C@@H]1C(=O)N2C(C(=O)[O-])=C(C[n+]3ccccc3)CS[C@H]12)c1csc(N)n1)C(=O)O [ceftazidime] | a solubility-improving effect was obtained | 
18 | CC(=O)O[C@@]12CO[C@@H]1C[C@H](O)[C@@]1(C)C(=O)[C@H](O)C3=C(C)[C@@H](OC(=O)[C@H](O)[C@@H](NC(=O)OC(C)(C)C)c4ccccc4)C[C@@](O)([C@@H](OC(=O)c4ccccc4)[C@H]21)C3(C)C [docetaxel hydrate] | a solubility-improving effect was obtained | 
19 | C[C@]12CC[C@@H]3c4ccc(O)cc4CC[C@H]3[C@@H]1C[C@@H](O)[C@@H]2O [estriol] | a solubility-improving effect was obtained | 
20 | CC(C)Cc1ccc(C(C)C(=O)O)cc1 (stereo not drawn) [ibuprofen] | a solubility-improving effect was obtained | 
